How the values were obtained:
Format in all cases: in vivo
[1] = tested on: Abutilon theophrasti (ABUTH); test: Pre-emergence herbicidal activity, glasshouse pot test; parameters: key: 5=total damage to plant; 0=no damage to plant; settings: Rate 1000 g/Ha; sprayed one day after sowing; evaluated after 13 days; scale 0-5
Procedure: (§1) Seeds of a variety of test species were sown in standard soil in pots. After cultivation for one day (pre-emergence) under controlled conditions in a glasshouse (at 24/16° C., day/night; 14 hours light; 65% humidity), the plants were sprayed with an aqueous spray solution derived from the formulation of the technical active ingredient in acetone/water (50:50) solution containing 0.5% Tween 20 (polyoxyethelyene sorbitan monolaurate, CAS RN 9005-64-5). The test plants were then grown in a glasshouse under controlled conditions (at 24/16° C., day/night; 14 hours light; 65% humidity) and watered twice daily. After 13 days, the test was evaluated (5=total damage to plant; 0=no damage to plant).

[2] = tested on: Amaranthus retroflexus (AMARE); test: as above; parameters: key: 5=total damage to plant; 0=no damage to plant; settings: Rate 1000 g/Ha; sprayed one day after sowing; evaluated after 13 days; scale 0-5
Procedure: as §1

[3] = tested on: Echinochloa crus-galli (ECHCG); test: as above; parameters: key: 5=total damage to plant; 0=no damage to plant; settings: Rate 1000 g/Ha; sprayed one day after sowing; evaluated after 13 days; scale 0-5
Procedure: as §1

Setaria faberi (SETFA) [4] = test: as above; parameters: key: 5=total damage to plant; 0=no damage to plant; settings: Rate 1000 g/Ha; sprayed one day after sowing; evaluated after 13 days; scale 0-5
Procedure: as §1

Zea mays (ZEAMX) [5] = test: as above; settings: Rate 1000 g/Ha; sprayed one day after sowing; evaluated after 13 days; scale 0-5
Procedure: as §1

[6] = tested on: Abutilon theophrasti (ABUTH); test: Post-emergence herbicidal activity, glasshouse pot test; parameters: key: 5=total damage to plant; 0=no damage to plant; settings: Rate 1000 g/Ha; sprayed after 8 days cultivation; evaluated after 13 days; scale 0-5
Procedure: (§2) Seeds of a variety of test species were sown in standard soil in pots. After 8 days cultivation (post-emergence) under controlled conditions in a glasshouse (at 24/16° C., day/night; 14 hours light; 65% humidity), the plants were sprayed with an aqueous spray solution derived from the formulation of the technical active ingredient in acetone/water (50:50) solution containing 0.5% Tween 20 (polyoxyethelyene sorbitan monolaurate, CAS RN 9005-64-5). The test plants were then grown in a glasshouse under controlled conditions (at 24/16° C., day/night; 14 hours light; 65% humidity) and watered twice daily. After 13 days, the test was evaluated (5=total damage to plant; 0=no damage to plant).

[7] = tested on: Amaranthus retroflexus (AMARE); test: as above; parameters: key: 5=total damage to plant; 0=no damage to plant; settings: Rate 1000 g/Ha; sprayed after 8 days cultivation; evaluated after 13 days; scale 0-5
Procedure: as §2

[8] = tested on: Echinochloa crus-galli (ECHCG); test: as above; parameters: key: 5=total damage to plant; 0=no damage to plant; settings: Rate 1000 g/Ha; sprayed after 8 days cultivation; evaluated after 13 days; scale 0-5
Procedure: as §2

Setaria faberi (SETFA) [9] = test: as above; parameters: key: 5=total damage to plant; 0=no damage to plant; settings: Rate 1000 g/Ha; sprayed after 8 days cultivation; evaluated after 13 days; scale 0-5
Procedure: as §2

Zea mays (ZEAMX) [10] = test: as above; parameters: key: 5=total damage to plant; 0=no damage to plant; settings: Rate 1000 g/Ha; sprayed after 8 days cultivation; evaluated after 13 days; scale 0-5
Procedure: as §2

Structure (SMILES) | ABUTH damage score, application pre-emergence [1] | AMARE damage score, application pre-emergence [2] | ECHCG damage score, application pre-emergence [3] | SETFA damage score, application pre-emergence (Setaria faberi (SETFA) [4]) | ZEAMX damage score, application pre-emergence (Zea mays (ZEAMX) [5]) | ABUTH damage score, application post-emergence [6] | AMARE damage score, application post-emergence [7] | ECHCG damage score, application post-emergence [8] | SETFA damage score, application post-emergence (Setaria faberi (SETFA) [9]) | ZEAMX damage score, application post-emergence (Zea mays (ZEAMX) [10])
C#CCN1C(=O)N(c2cc(C(C)(C)C)on2)C(O)C1C (single isomer, unassigned) [Compound A22] | 5 | 5 | 5 | 5 | 3 | 5 | 5 | 5 | 5 | 5
COC(C)(C)c1cc(N2C(=O)N(C)CC2O)no1 (centres unmarked) [Compound A9] | 5 | 5 | 5 | 5 | 3 | 5 | 5 | 5 | 5 | 5
COC(C)(C)c1cc(N2C(=O)N(C)C(C)C2O)no1 (centres unmarked) [Compound A10] | 5 | 5 | 5 | 5 | 3 | 5 | 5 | 5 | 5 | 5
CN1CC(O)N(c2cc(C(C)(C)O)on2)C1=O (centres unmarked) [Compound A11] | 5 | 5 | 5 | 4 | 2 | 5 | 5 | 5 | 4 | 3
COC(C)(C)c1cc(N2C(=O)N(C)[C@H](C)C2O)no1 (some centres unmarked) [Compound A12] | 5 | 5 | 5 | 5 | 3 | 5 | 5 | 5 | 5 | 4
CON1C(=O)N(c2cc(C(C)(C)OC)on2)C(O)C1C (centres unmarked) [Compound A13] | 5 | 5 | 5 | 5 | 2 | 5 | 5 | 5 | 5 | 4
CCOC1C(O)N(c2cc(C(C)(C)OC)on2)C(=O)N1C (centres unmarked) [Compound A14] | 5 | 5 | 5 | 5 | 2 | 5 | 5 | 5 | 5 | 4
COCC1C(O)N(c2cc(C(C)(C)OC)on2)C(=O)N1C (centres unmarked) [Compound A15] | 5 | 5 | 5 | 5 | 2 | 5 | 5 | 5 | 5 | 3
CN1CC(O)N(c2cc(C(C)(C)F)no2)C1=O (centres unmarked) [Compound A16] | 5 | 5 | 5 | 5 | 2 | 5 | 5 | 5 | 5 | 5
CC1C(O)N(c2cc(C(C)(C)F)no2)C(=O)N1C (centres unmarked) [Compound A17] | 5 | 5 | 5 | 5 | 2 | 5 | 5 | 5 | 5 | 4
CON1C(=O)N(c2cc(C(C)(C)F)no2)C(O)C1C (centres unmarked) [Compound A18] | 5 | 5 | 5 | 5 | 2 | 5 | 5 | 5 | 5 | 4
C#CCC1C(O)N(c2cc(C(C)(C)C)on2)C(=O)N1CC#C (centres unmarked) [Compound A23] | 5 | 5 | 4 | 5 | 2 |  |  | 5 |  | 
C#CCN1CC(O)N(c2cc(C(C)(C)C)on2)C1=O (centres unmarked) [Compound A24] | 5 | 5 | 5 | 5 | 3 |  |  | 5 |  | 

Reference: US10499640B2, “Herbicidal compounds” (SYNGENTA PARTICIPATIONS AG, priority 2014, dated 2019)
